Measurements reported in publication PMC3951440, “Assessing Specific Oligonucleotides and Small Molecule Antibiotics for the Ability to Inhibit the CRD-BP-CD44 RNA Interaction” (PLoS ONE, 2014).

target: T1, CRD-BP-CD44 RNA interaction (Mus musculus, UniProt O88477); experiment: EMSA competition and inhibition assay; assay type: binding; details: not given
T1 construct: The plasmid pET28b(+)-CRD-BP which contains the entire coding region of mouse CRD-BP cDNA; FLAG (N); 6xHis (C); made in house; host or cells: Escherichia coli BL21(DE3)
Description: The electrophoretic mobility shift assay (EMSA) binding buffer (5 mM Tris-Cl pH 7.4, 2.5 mM EDTA pH 8.0, 2 mM DTT, 5% glycerol, 0.1 mg/ml bovine serum albumin, 0.5 mg/mL yeast tRNA, 5 units RNasin) was prepared on ice prior to each experiment. In order to facilitate RNA denaturation and renaturation, the [^32P] RNA sample was heated to 50°C for 5 minutes and cooled to room temperature before adding the EMSA binding buffer and the appropriate amount of purified recombinant CRD-BP to a final volume of 20-μL. Reactions were incubated at 30°C for 10 minutes and transferred to ice for 5 minutes. The reaction was again incubated at 30°C for 10 minutes and transferred to ice for an additional 5 min. A total of 2 μL EMSA loading dye (250 mM Tris-Cl pH 7.4, 0.2% bromophenol blue, 0.2% xylene cyanol, 40% sucrose) was added to each reaction and 15 μL of the EMSA reaction was loaded onto an 8% native polyacrylamide gel and resolved at 25 mA for 90 minutes. Following electrophoresis, the gel was exposed overnight at –80°C and subjected to autoradiography using the Cyclone PhosphorImager and Optiquant Software.
EMSA competition and inhibition assays involved the pre-incubation between competitor molecules (oligonucleotides, aminoglycosides or RNA) and CRD-BP for 10 minutes at 30°C. Following the pre-incubation, 40 nM radiolabeled probe was added to the reaction. This was followed by the standard EMSA protocol as described above. The molar excess concentrations of oligonucleotides over the radiolabeled RNA probe are shown in each figure.

T1 sequence (O88477 whole entry): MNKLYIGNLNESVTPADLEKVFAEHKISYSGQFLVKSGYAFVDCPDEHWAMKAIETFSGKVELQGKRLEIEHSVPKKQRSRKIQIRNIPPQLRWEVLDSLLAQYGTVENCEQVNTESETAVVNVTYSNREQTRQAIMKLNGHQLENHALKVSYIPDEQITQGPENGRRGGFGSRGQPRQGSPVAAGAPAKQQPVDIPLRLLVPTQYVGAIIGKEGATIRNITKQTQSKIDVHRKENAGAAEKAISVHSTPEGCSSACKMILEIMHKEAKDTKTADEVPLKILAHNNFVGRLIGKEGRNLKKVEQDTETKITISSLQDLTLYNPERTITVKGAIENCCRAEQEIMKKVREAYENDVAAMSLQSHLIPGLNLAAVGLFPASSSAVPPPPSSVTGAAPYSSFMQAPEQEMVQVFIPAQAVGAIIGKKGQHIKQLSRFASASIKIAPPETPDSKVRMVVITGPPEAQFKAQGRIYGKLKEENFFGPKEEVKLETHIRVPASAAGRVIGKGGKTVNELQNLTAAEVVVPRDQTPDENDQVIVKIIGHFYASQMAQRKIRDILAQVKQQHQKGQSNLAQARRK

IC50	Compound
> 1000 µM	CC[C@H]1OC(=O)[C@H](C)[C@@H](O[C@H]2C[C@@](C)(OC)[C@@H](O)[C@H](C)O2)[C@H](C)[C@@H](O[C@@H]2O[C@H](C)C[C@H](N(C)C)[C@H]2O)[C@](C)(O)C[C@@H](C)C(=O)[C@H](C)[C@@H](O)[C@]1(C)O [Erythromycin, reference compound]
232 µM	NC[C@H]1O[C@H](O[C@H]2[C@H](O)[C@@H](O[C@H]3O[C@H](CO)[C@@H](O)[C@H](N)[C@H]3O)[C@H](N)C[C@@H]2N)[C@H](N)[C@@H](O)[C@@H]1O [Kanamycin B, reference compound]
> 1000 µM	COc1ccc(C[C@H](N)C(=O)N[C@H]2[C@@H](O)[C@H](n3cnc4c(N(C)C)ncnc43)O[C@@H]2CO)cc1 [Puromycin, reference compound]
491 µM	[H]/N=C(/N)N[C@H]1[C@H](O)[C@@H](O)[C@H](O[C@@H]2O[C@@H](C)[C@](O)(C=O)[C@H]2O[C@@H]2O[C@@H](CO)[C@H](O)[C@@H](O)[C@@H]2NC)[C@@H](N/C(N)=N\[H])[C@@H]1O [Streptomycin, reference compound]
> 1000 µM	NC[C@H]1O[C@H](O[C@H]2[C@H](O)[C@@H](O[C@H]3O[C@H](CO)[C@@H](O)[C@H](N)[C@H]3O)[C@H](N)C[C@@H]2N)[C@H](N)C[C@@H]1O [Tobramycin, reference compound]

Compound	IC50
CN[C@@H]1C[C@H](N)[C@@H](O)[C@H](O[C@H]2O[C@H](CO)[C@H](O)[C@@H]3O[C@@]4(O[C@@H]23)O[C@H]([C@H](N)CO)[C@H](O)[C@H](O)[C@H]4O)[C@H]1O [Hygromycin B, reference compound]	> 1000 µM

same assay, conditions: EMSA, [32P] CD44 Fragment 4

inhibition of the CRD-BP-CD44 RNA interaction in vitro (in words)	Compound
effectively inhibited	NC[C@H]1O[C@H](O[C@H]2[C@H](O)[C@@H](O[C@H]3O[C@H](CO)[C@@H](O)[C@H](N)[C@H]3O)[C@H](N)C[C@@H]2N)[C@H](N)[C@@H](O)[C@@H]1O [Kanamycin B, reference compound]
effectively inhibited	[H]/N=C(/N)N[C@H]1[C@H](O)[C@@H](O)[C@H](O[C@@H]2O[C@@H](C)[C@](O)(C=O)[C@H]2O[C@@H]2O[C@@H](CO)[C@H](O)[C@@H](O)[C@@H]2NC)[C@@H](N/C(N)=N\[H])[C@@H]1O [Streptomycin, reference compound]

same assay, conditions: up to 24-fold molar excess; CRD-BP 2000 nM

Compound	inhibition of CRD-BP-CD44 Fragment 4 interaction
ACGATCAAATTCTTGCTGATTA (chemistry not given here) [DD2, antisense oligonucleotide to CD44 mRNA 3′UTR nts 2881–2902; phosphodiester DNA]	ineffective
AGGCCCTATTAACCCTGGGAAAT (chemistry not given here) [DD9, antisense oligonucleotide to CD44 mRNA 3′UTR nts 3015–3037; phosphodiester DNA]	ineffective
GAATACATATGTGTAGTTTTTG (chemistry not given here) [DD6, antisense oligonucleotide to CD44 mRNA 3′UTR nts 2959–2980; phosphodiester DNA]	ineffective
GGCCTCCAAGTGGGAACTGGAA (chemistry not given here) [DD3, antisense oligonucleotide to CD44 mRNA 3′UTR nts 2902–2923; phosphodiester DNA]	ineffective
GTCCTTAGCTGGTGGGGGAAAG (chemistry not given here) [DD8, antisense oligonucleotide to CD44 mRNA 3′UTR nts 2993–3014; phosphodiester DNA]	ineffective
TTTTGTTAGAAGCCATCCATAG (chemistry not given here) [DD5, antisense oligonucleotide to CD44 mRNA 3′UTR nts 2942–2963; phosphodiester DNA]	ineffective
